Assay [1] concerns pulmonary fibrosis mice [肺纤维化小鼠]. The assay can be described thus: Effect on survival rate of mice with bleomycin-induced pulmonary fibrosis. The class given is in vivo, mouse. The conditions noted are these: intragastric, once daily from day 1, model group 50.0%; for survival rate: day 21 after bleomycin (5 mg/kg intratracheal).
Assay [2] deals with lung tissue of pulmonary fibrosis mice [肺纤维化小鼠肺组织]. Briefly: Effect on lung tissue lesions of pulmonary fibrosis mice, HE staining (Fig. 1). The conditions noted are these: intragastric, once daily, day 21, vs model group. The class given is in vivo, mouse.
Assay [3] shares this test system. Briefly: Effect on collagen deposition in lung tissue of pulmonary fibrosis mice, Masson staining (Fig. 2). The class given is in vivo, mouse. Particulars: intragastric, once daily, day 21, vs model group.
Assay [4] has as its system bleomycin model mice [博来霉素模型小鼠]. The assay can be described thus: Effect on degree of alveolitis and pulmonary fibrosis in bleomycin model mice (Table 1). The class given is in vivo, mouse. The conditions noted are these: intragastric, once daily, day 21, n=3.
Assay [5] concerns hydroxyproline in lung tissue of pulmonary fibrosis mice [肺纤维化小鼠肺组织中羟脯氨酸]. The assay can be described thus: Effect on hydroxyproline content in lung tissue of pulmonary fibrosis mice (Fig. 3). The assay is classed as in vivo, mouse.
For assay [6], the system named is smooth muscle actin (α-SMA) [平滑肌肌动蛋白(α-SMA)]. The assay can be described thus: Effect on α-SMA expression in lung tissue of pulmonary fibrosis mice, Western blot (Fig. 4). The conditions noted are these: intragastric, once daily, day 21. The class given is in vivo, mouse.
Assay [7] relates to TGF-β1 protein [TGF-β1蛋白]. The assay can be described thus: Effect on TGF-β1 protein expression in lung tissue of pulmonary fibrosis mice, Western blot (Fig. 5). Particulars: intragastric, once daily, day 21. The assay is classed as in vivo, mouse. (In general: A western blot detects proteins with antibodies after separation by electrophoresis.)
The test system of assay [8] is lipopolysaccharide-induced acute lung injury in mice [脂多糖引起的小鼠急性肺损伤]. Particulars: intraperitoneal injection, Inflamm Res 2011,60(10):981-990; cited from earlier work.

Each structure is given as a SMILES string.

The molecule `C[C@@]12C[C@@]3(O)O[C@@H](O1)[C@]1(COC(=O)c4ccccc4)[C@H]3C[C@@]12O[C@@H]1O[C@H](CO)[C@@H](O)[C@H](O)[C@H]1O` [芍药苷, Paeoniflorin] showed a survival rate in assay [1] (50 mg/kg) of 87.5%. This molecule also displayed a survival rate in assay [1] (100 mg/kg) of 75.0%. Further, in assay [2] (100 mg/kg), the “degree of alveolitis, HE staining” value is listed as “肺泡炎程度明显减轻” and the “lung tissue lesions, HE staining” value was “肺组织结构较完整清晰,少量炎性细胞浸润及成纤维细胞增生,病变程度较模型组轻”. For the same molecule, in assay [3] (100 mg/kg), the “collagen deposition and pulmonary fibrosis, Masson staining” value was “肺组织结构较完整清晰,肺泡间隔轻度增厚,胶原沉积减少,肺纤维化程度明显减轻”. In addition, in assay [4] (100 mg/kg), the alveolar inflammation entry is recorded as “抑制肺泡炎症” and the “degree of pulmonary fibrosis” value is “显著减低肺纤维化程度”. In addition, the “inhibition of collagen synthesis (in words)” value in assay [5] (50, 100 mg/kg, intragastric, once daily, day 21) is reported as “剂量依赖性抑制胶原的合成”. Moreover, in assay [5] (Mus musculus, po, 504 h, 50 mg/kg, intragastric, once daily, day 21, read-out: inhibition rate of hydroxyproline content in lung tissue), the inhibition – broadly, how much of the control response was suppressed – at 50 mg/kg turned out to be 20.6%. For the same molecule, the inhibition at 100 mg/kg in assay [5] (Mus musculus, po, 504 h, 100 mg/kg, intragastric, once daily, day 21, read-out: inhibition rate of hydroxyproline content in lung tissue) amounted to 31.4%. For the same molecule, the “α-SMA content in lung tissue” value in assay [6] (100 mg/kg) is “显著降低”. For the same molecule, the “TGF-β1 expression in lung tissue” value in assay [7] (100 mg/kg) is “显著降低”. Also, the “protective effect on acute lung injury” value in assay [8] was “具有明显的保护作用”.
`CC(=O)OCC(=O)[C@@]1(O)CC[C@H]2[C@@H]3CCC4=CC(=O)C=C[C@]4(C)[C@H]3C(=O)C[C@@]21C` [泼尼松, 醋酸泼尼松, reference compound]: the “survival rate (in words)” value in assay [1] (6 mg/kg, day 21 after bleomycin) is “与模型组相近”. In assay [2] (6 mg/kg), the “degree of alveolitis, HE staining” value was “肺泡炎程度明显减轻” and the “lung tissue lesions, HE staining” value is given as “肺组织结构较完整清晰,少量炎性细胞浸润及成纤维细胞增生,病变程度较模型组轻”. Moreover, in assay [3] (6 mg/kg), the “collagen deposition and pulmonary fibrosis, Masson staining” value is reported as “肺组织结构较完整清晰,肺泡间隔轻度增厚,胶原沉积减少,肺纤维化程度明显减轻”. For the same molecule, in assay [4] (6 mg/kg), the alveolar inflammation result is reported as “抑制肺泡炎症” and the “degree of pulmonary fibrosis” value is listed as “显著减低肺纤维化程度”. In assay [5] (Mus musculus, po, 504 h, read-out: inhibition rate of hydroxyproline content in lung tissue), the inhibition at 6 mg/kg is 31.2%. In addition, the “α-SMA content in lung tissue” value in assay [6] (6 mg/kg) is “显著降低”. Further, the “TGF-β1 expression in lung tissue” value in assay [7] (6 mg/kg) is on record as “显著降低”.

Source of the values: patent CN102488699A, “芍药苷在制备防治肺纤维化药物中的应用” (China Pharmaceutical University, priority 2011, dated 2012).
